Measurements taken from a melting point compilation (Tetko et al.; mined from patent text by program, amines drawn as free bases though some values may be those of a salt).

SMILES | melting point
CC(C)c1ccc2oc3cc(C#N)c(O)nc3c(=O)c2c1 | > 300 °C
CN1CCN(S(=O)(=O)c2ccc(O)cc2)CC1 | 225 to 227 °C
COc1cc(NC2CCN(S(=O)(=O)c3ccccc3)CC2)ccc1C(N)=O | 166 to 168 °C
CS(=O)(=O)c1ccc(-c2c(-c3ccc(F)cc3)c(OCc3c(F)cccc3Cl)nn2Cc2c(F)cccc2Cl)cc1 | 195 to 196 °C
COP(=O)(OC)[C@H](C)NC(=O)[C@H](C)NC(=O)[C@H](C)NC(=O)CNC(=O)OCc1ccccc1 | 162 to 164 °C
CCOC(=O)C1=C(CO)NC(SC)=NC1c1ccccc1SC (stereo not given) | 151 to 153 °C
NC(=O)Cn1cc2c(n1)CN=C(c1ccccc1)c1cc(Cl)ccc1-2 | 236 to 238 °C
Oc1cccc(Sc2ncccc2O)c1 | 147 to 148 °C
CC1=Nc2cc(C)c(C)cc2C(=O)C1 | 120 to 122 °C
N#CC1(c2ccc(F)cc2)C2CC3CC(C2)CC1C3 (stereo not given) | 81 to 82 °C
COc1ccc2[nH]c(C(N)=O)cc2c1 | 204 to 205 °C
Cc1ccc(S(=O)(=O)OCC(O)Cc2c(Cl)cc3c(c2O)CCC3)cc1 (stereo not given) | 125 to 127 °C
CC(Cc1ccc(C(=O)OCOC(=O)C(C)(C)C)cc1)NCC(O)c1ccc(O)c(CO)c1 (stereo not given) | 55 to 57 °C
O=C(O)CSc1ccc(/C=C/C(=O)NCc2cccnc2)cc1 | 160 to 161 °C
O=C(C=Cc1cc(O)c(O)cc1O)OCCc1ccccc1 | 146 to 149 °C
COC(=O)c1cc(=O)c2oc3ccccc3c(=O)c2n1C | 290 to 293 °C
N#Cc1ccc(Oc2ccc3ccc(Oc4ccc(C#N)c(C#N)c4)cc3c2)cc1C#N | 201 to 204 °C
CCCCCCc1ccc(C=Nc2ccc(C#N)cc2)cc1 | 32.2 to 33 °C
Cc1cc(NC2=NCCN2)n(-c2cccc3ccccc23)n1 | 221 to 224 °C
O=C1NC(=O)C(S(=O)(=O)c2ccc(F)cc2)S1 (stereo not given) | 190 to 196 °C
O=C(CCCCCCC1=CC(O)CC1=O)Oc1ccc(NC(=O)c2ccccc2)cc1 (stereo not given) | 168 to 169 °C
CN(C)[C@H]1C[C@@H]2CN(C(=O)c3ccc(NC(=O)c4ccccc4-c4ccccc4)cc3)c3ccccc3N2C1 | 195 to 197 °C
Cc1cn([C@H]2C=C[C@@H](O)C2)c(=O)[nH]c1=O (racemic) | 191 to 192 °C
CC(C)(SCC(N)=O)c1ccc2c(c1)OCO2 | 70 to 71.5 °C
CCCCCCCCCCCCCCCCCCOc1cc(N(CC(=O)OC)CC(=O)OC)cc(S(C)=O)c1 (stereo not given) | 80 to 82 °C

SMILES | melting point
O=[N+]([O-])c1cccc(C(c2cccc([N+](=O)[O-])c2)(C(F)(F)F)C(F)(F)F)c1 | 118 to 119 °C
CC1(C)CC(OC(=O)CCCCCCCCC(=O)OC2CC(C)(C)N(OC3CCCCC3)C(C)(C)C2)CC(C)(C)N1OC1CCCCC1 | 56 to 59 °C
O=CN(c1cccc(C(F)(F)F)c1)c1cccc(C(F)(F)F)c1 | 63 to 65 °C
CCCCCCCCCCCCCCCCNC(=O)OCC(CO)OC (stereo not given) | 47.5 to 48 °C
Cc1cccc(-c2c(CBr)n(C)c(=O)n(C)c2=O)c1 | 136 to 137 °C
CCc1noc(-c2ccccc2)c1-c1ccc(S(N)(=O)=O)cc1 | 167 °C
CC(C#N)c1ccc(O)cc1 (stereo not given) | 41 to 46 °C
COC(=O)c1ccc(Cn2nc(OC)c3ccc(N)cc32)c(OC)c1 | 188 to 193 °C
CNc1ccc2c(c1)C(c1ccccc1F)=NCc1cnc(C)n1-2 | 255 to 259 °C
CCCCN(CCCCO)c1ccc(C=Cc2ccc(C=CC3=C(C#N)C(=C(C#N)C#N)OC3(C)C(F)(F)F)s2)c(OCc2ccccc2)c1 (stereo not given) | 176 to 178 °C
CCOC(=O)c1ccc(C)c(Nc2nccc(-c3cccnc3)n2)c1 | 95 to 96 °C
O=C(OC(F)C(F)F)c1cnccn1 (stereo not given) | 46 to 48 °C
CCOC(=O)C(=O)Cc1ccnc2c1C(=O)c1ccccc1-2 | 196 to 197 °C
CCCCc1nc2c(N)nc3ccccc3c2n1CCCCSc1ccc(F)cc1F | 122 to 126 °C
CC(C)N1C(=O)N=C(SCc2ccccc2)NS1(=O)=O | 124 to 130 °C
Cc1nc(OC(C)C)nc(C)c1N1CCCn2c1nc1c(Cl)ccc(C(OC(F)F)C(F)(F)F)c12 (stereo not given) | 227 to 230 °C
O=[N+]([O-])c1cccc2c(OS(=O)(=O)C(F)(F)F)ccnc12 | 108 °C
CC(C)C1N(CC(N)=O)C(=O)CN1C(=O)CN (stereo not given) | 205 to 211 °C
O=C(O)CCCCCC[C@H]1CC[C@@H](O)CC1 | 75 to 79 °C
CCC(C)c1ccc(-n2c(-c3cc(C)c(OCCO)c(C)c3)nc3c(OC)cccc3c2=O)cc1 (stereo not given) | 158 to 159 °C
CN1C(=O)Cc2ccccc2C1=O | 113 to 115 °C
O=C1Cc2cc(OCCN3CCC(Cc4ccc(F)cc4)CC3)ccc2N1 | 149 to 150 °C
O=C1Nc2ccccc2C12COc1ccc(Br)cc12 (stereo not given) | 225 to 228 °C
CCCCc1cc(-c2ccc(S(N)(=O)=O)cc2)n(-c2ccc(OC)cc2)c1 | 115 to 117 °C
COc1ccc2c(c1)Cc1nnc(S(C)=O)n1C=C2 (stereo not given) | 176 to 177 °C

SMILES | melting point
Cc1nc(COc2cccc(Cl)c2C)no1 | 69 °C
O=C(Nc1ccc([N+](=O)[O-])cc1)C(F)F | 188 to 189 °C
COc1cc(COc2cccc3c2CN(C2CCC(=O)NC2=O)C3=O)ccc1OCCN(C)C (stereo not given) | 190 to 192 °C
c1ccc(-n2c(C3=NCCN3)cc3ccccc32)cc1 | 180 to 182 °C
CCN(CC)S(=O)(=O)c1cc2[nH]c(=O)c(=O)[nH]c2cc1[N+](=O)[O-] | > 360 °C
CCOC(=O)CN1C(=O)SC(Cc2ccc(N3CCC(NCC(O)c4ccc(O)c(NS(C)(=O)=O)c4)CC3)cc2)C1=O (stereo not given) | 153 to 155 °C
CCCCCCCCNC(=O)N1CCC(c2cc(Cc3ccc(OC)cc3)nc(N)n2)CC1 | 104 to 106 °C
O=C(c1ccccc1)c1cc(Cl)cc2c1S(=O)CC2C(=O)O (stereo not given) | 172 to 174 °C
O=C1Cc2ccccc2C=Cc2cc(Br)ccc21 | 121 to 123 °C
COC(CSc1nc(SCc2ccccc2)n[nH]1)OC | 73 to 76 °C
Cc1nn(CC(O)c2ccc(Cl)cc2)c(=O)n1-c1ccc(N2CCN(c3ncc(O)cn3)CC2)cc1 (stereo not given) | 244 °C
CC(=O)C1=C(C)NC(C)=C(C(=O)CCCCCCCN2CCC(c3ccccc3)(c3ccccc3)CC2)C1c1cccc([N+](=O)[O-])c1 (stereo not given) | 141 to 145 °C
O=C(CCl)NC(C(=O)O)N(C(=O)CCl)c1cscn1 (stereo not given) | 184 to 186 °C
CCCCOc1ccc(S(=O)(=O)C2(C(=O)OCC)CCN(Cc3ccc(F)cc3)CC2)cc1 | 114 °C
CC(C)N1CC(c2cc(CCc3ccccc3)ncn2)=C(O)C1=O | 156 to 159 °C
Cc1[nH]c(C(=O)NCC2=NNC(=O)CC2)c(C)c1-c1nc2ccc(C(=O)c3ccccc3)cc2[nH]1 | 287 °C
O=C(c1ccc(Br)cc1)c1cccc2cc[nH]c12 | 162 to 164 °C
C=CCn1c(C(F)(F)F)nc2cc(-n3c(=O)cc(C(F)(F)F)n(C)c3=O)ccc21 | 185 to 187 °C
COc1cccc(CNC(=O)c2nc3sc(C(=O)O)c(C)c3c(=O)[nH]2)c1 | > 300 °C
CN(Cc1ccc(-c2ccc(OCc3nnn[nH]3)c(Br)c2)cc1)C(=O)c1cn(C)c2ccccc12 | 239 °C
COc1ccsc1C1CCN(C[C@H](Cc2ccccc2)NC(=O)C2CCCCC2)CC1 | 92 to 94 °C
CCOC(=O)C1=Cc2cc(-c3ccc(CC)cc3)ccc2OCC1 | 81 to 83 °C
CC12CCC3C(CCC4CC=CCC43C)C1CC=C2I (stereo not given) | 71 to 72 °C
CCN(CC)CCNC(=O)c1cc(Cl)c(N)cc1OCCNC(C)=O | 143 to 145 °C
CCCCCCCCCCCCCCCCSc1cc(O)c(Sc2nnnn2-c2ccccc2)cc1O | 129 to 131 °C

SMILES | melting point
COc1ccc2c(c1)C=C(C(=O)N1CCN(C(=O)c3cc(OC)c(OC)c(OC)c3)CC1)CCO2 | 110 to 115 °C
CCOC(=O)c1c(-c2ccc(Cl)c(Cl)c2)csc1N1C(=O)c2ccccc2C1=O | 155 to 156 °C
CCOC(=O)Nn1cccc1C(=O)c1ccccc1Cl | 90 to 92 °C
CC(c1ccco1)N(O)C(N)=O (stereo not given) | 143 to 144 °C
C1=Cc2c3c(ccc2=N1)=CC=N3 | 201 to 205 °C
COC(=O)c1ccc2c(c1)C=CC(=CCl)CO2 | 72 to 77 °C
O=C(NC(Cc1c[nH]c2ccccc12)C(=O)CCc1cc(C(F)(F)F)cc(C(F)(F)F)c1)c1ccccc1 (stereo not given) | 119 to 122 °C
COc1cc(OC)c2c(=O)[nH]c(-c3ccc(OCCN4CCCC4)c(C)c3)nc2c1 | 230 to 231 °C
O=c1cc(-c2ccccc2)oc2c(CN3CCN(CCO)CC3)c(O)c(O)c(O)c12 | 192 °C
CCc1[nH]n(-c2c(Cl)cc(Cl)cc2Cl)c2nc(Cc3cccc(OC)c3)nc(=O)c1-2 | 235 to 238 °C
Cc1nc2c3c(ccc2n1C)[C@@H](OCC(F)F)[C@H](O)[C@@H](c1ccccc1)O3 | 249 °C
COc1ccc2oc(Cc3cc(C(F)(F)F)cc(C(F)(F)F)c3)c(CC#N)c2c1 | 112 °C
CCCCCCc1oc(C=Cc2ccccc2)nc1CC(=O)O | 107 to 108 °C
Cn1ncc(=O)[nH]c1=O | 118 °C
CCOCC(=O)C1CCC2C3CCC4CC(O)CCC4(C)C3C(=O)CC12C (stereo not given) | 129 to 131 °C
O=C(c1ccc(F)cc1)c1ccc(-c2ccccc2)cc1 | 149 °C
COc1cc2cc(N(C)C)sc2cc1OCc1ccccc1 | 140 to 142 °C
BrCc1ccc2ccccc2c1Br | 106 to 108 °C
COc1cccc2c1N(CCCO)Cn1cc(CO)cc1-2 | 116 to 118 °C
c1csc(-c2coc(COc3ccc(CCCn4ccnc4)cc3)n2)c1 | 123 to 124 °C
N#CC(N)=C(C#N)N=C=CCc1cnn(-c2c(Cl)cc(C(F)(F)F)cc2Cl)n1 | 207 to 209 °C
CCCCCCCCOc1ccc(-c2ncc(O)cn2)cc1 | 131 to 132 °C
COc1ccc(-c2c(Cl)c(CN3C(=O)CCC3=O)nc3sc4c(F)c(OC)ccc4c23)cc1 | 215 to 216 °C
CCCCc1nc(=O)c2cc(C(C)(C)O)ccc2[nH]1 | 190 to 192 °C
CCC(=C(c1ccc(O)cc1)c1ccc(OCCN(C)C)cc1)c1ccccc1 | 114 to 117 °C
